Assay results: paper PMC4441091 (Chemical & pharmaceutical bulletin, 2014)

Biological target: T1, FASN-TE; rTE (recombinant TE domain of human FASN) (Homo sapiens, UniProt P49327)
Assay: fluorogenic thioesterase assay
Type: biochemical
Settings: not given

T1 sequence (P49327 2218-2511 limits assumed): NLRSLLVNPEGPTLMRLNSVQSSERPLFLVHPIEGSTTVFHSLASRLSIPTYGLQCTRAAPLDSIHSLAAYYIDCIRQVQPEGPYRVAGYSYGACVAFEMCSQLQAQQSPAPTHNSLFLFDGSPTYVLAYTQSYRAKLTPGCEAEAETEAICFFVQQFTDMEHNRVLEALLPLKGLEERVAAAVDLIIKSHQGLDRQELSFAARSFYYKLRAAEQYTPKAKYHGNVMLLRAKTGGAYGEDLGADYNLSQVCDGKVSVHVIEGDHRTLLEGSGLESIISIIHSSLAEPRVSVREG

IC50	Structure (SMILES)
6.2 µM	CCCCCCCSC1=CC(=O)C=CC1=O [2f, 2-(Heptylthio)cyclohexa-2,5-diene-1,4-dione]
6.4 µM	O=C1C=CC(=O)C(SC2CCCC2)=C1 [2e, 2-(Cyclopentylthio)cyclohexa-2,5-diene-1,4-dione]
0.2 µM	O=C1C=CC(=O)C(Sc2ccccc2)=C1 [2g, 2-(Phenylthio)cyclohexa-2,5-diene-1,4-dione]

More lines, now with the values behind:

Structure (SMILES)	IC50
O=C1C=CC(=O)c2c(O)cccc21 [1g, juglone]	0.1 µM
CC1=CC(=O)c2ccccc2C1=O [1c, menadione]	21.9 µM
O=C1C=C(N2CCOCC2)C(=O)c2c(O)cccc21 [1h, 8-Hydroxy-2-morpholinonaphthalene-1,4-dione]	26.4 µM
CC1=CC(=O)c2c(O)cccc2C1=O [1d, plumbagin]	10.9 µM

Same assay, conditions: read-out: rTE IC50; substrate 4-methylumbelliferyl heptanoate

IC50	Structure (SMILES)
12.5 µM	CC1=C(Br)C(=O)c2ccccc2C1=O [1a, NS-4390]

Biological target: T1, FASN-TE; rTE (recombinant TE domain of human FASN)
Assay: fluorogenic thioesterase assay
Type: biochemical
Settings: not given
Remark: another data set of the same source

Structure (SMILES)	IC50
O=C1C=CC(=O)c2c(O)ccc(O)c21 [1i, naphthazarin]	3.5 µM
